Source: patent US9850283B2, “Macrocyclic inhibitors of the PD-1/PD-L1 and CD80(B7-1)/PD-L1 protein/protein interactions” (BRISTOL-MYERS SQUIBB COMPANY, priority 2013, dated 2017)
Like-named read-outs stand apart in the source and are kept apart here. Starred links: 1 amine or outer side, 2 acyl side, 3 side chain; linkers in the order of their positions; H or OH if unused. Positions of bridges follow the written chain, without caps; N, C: chain ends. Non-standard residues stand in square brackets, D forms with d. Residues, ends and D or L forms follow the SMILES beside them. ξ: configuration not given here. X2 = CCOc1ccc(-c2[nH]c3ccccc3c2C[C@H](N[*:1])C(=O)[*:2])cc1; Phe(4-CF3) = N[C@@H](Cc1ccc(C(F)(F)F)cc1)C(=O)O; Phe(4-COOH) = N[C@@H](Cc1ccc(C(=O)O)cc1)C(=O)O; Phe(4-CH2NH2) = NCc1ccc(C[C@H](N)C(=O)O)cc1; Phe(4-F) = N[C@@H](Cc1ccc(F)cc1)C(=O)O; Bta = N[C@@H](Cc1csc2ccccc12)C(=O)O; cisHyp = O=C(O)[C@@H]1C[C@H](O)CN1; Hyp = O=C(O)[C@@H]1C[C@@H](O)CN1; NMeF = CN[C@@H](Cc1ccccc1)C(=O)O; Cha = N[C@@H](CC1CCCCC1)C(=O)O; NMeNle = CCCC[C@H](NC)C(=O)O; ξR = N=C(N)NCCCC(N)C(=O)O; NMeA = CN[C@@H](C)C(=O)O; Orn = NCCC[C@H](N)C(=O)O; Dab = NCC[C@H](N)C(=O)O; Dap = NC[C@H](N)C(=O)O; Sar = CNCC(=O)O

Assays:
[1] = target: T1, Human PD-L1/PD-1 (Homo sapiens, UniProt Q9NZQ7); experiment: HTRF PD-1-Ig/PD-L1-His binding assay (human PD-L1); conditions: cluster symbol; read-out: HTRF IC50 cluster
T1 construct: made in house; host or cells: HEK293T
Method in brief: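 The time-resolved fluorescence signal comes from Eu-cryptate anti-Ig (1 nM) and APC anti-His (20 nM) antibodies bound to a PD-1-Ig/PD-L1-His complex. Both partners lack transmembrane regions.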

[2] = target: T2, LK35.2-hPD-L1 cells / PE-labeled PD-1-Ig (Homo sapiens, UniProt Q9NZQ7); experiment: LK35.2-hPD-L1 cell binding high-content screening assay; type: cell-based
T2 construct: expressed in transfected cells; host or cells: LK35.2 mouse B cell line
Method in brief: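 Mouse LK35.2 B cells stably overexpressing human PD-L1 were cultured overnight in RPMI with 10% FCS, then given compound and PE-labeled human PD-1-Ig (1 nM final) for 1 h at 37 °C. After three dPBS washes, bound fluorescence was quantified by high-content imaging.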

[3] = cluster symbol, cell line of CBA not given (LK35.2-hPD-L1 or 293T-hPD-L1), read-out: CBA IC50 cluster
[4] = cell binding assay, cell line not given, cluster symbol, read-out: CBA IC50 cluster

T1 sequence (Q9NZQ7 with tags, fused parts or gaps): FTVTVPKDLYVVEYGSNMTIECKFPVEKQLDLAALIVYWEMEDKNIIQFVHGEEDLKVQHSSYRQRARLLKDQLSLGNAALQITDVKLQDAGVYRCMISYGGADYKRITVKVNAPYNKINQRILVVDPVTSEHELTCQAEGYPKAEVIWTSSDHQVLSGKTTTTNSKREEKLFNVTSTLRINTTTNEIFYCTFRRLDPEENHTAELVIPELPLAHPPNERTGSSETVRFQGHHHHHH
T2 sequence (Q9NZQ7 19-290): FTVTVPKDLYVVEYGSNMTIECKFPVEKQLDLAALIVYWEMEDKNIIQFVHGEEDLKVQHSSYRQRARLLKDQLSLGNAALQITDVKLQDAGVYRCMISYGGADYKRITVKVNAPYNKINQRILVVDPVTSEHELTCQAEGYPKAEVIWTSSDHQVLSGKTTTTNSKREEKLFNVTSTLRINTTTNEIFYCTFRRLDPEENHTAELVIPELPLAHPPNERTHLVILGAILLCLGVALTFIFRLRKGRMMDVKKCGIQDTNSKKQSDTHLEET

SMILES	IC50 [1]	IC50 [2, 3]	IC50 [2, 4]	IC50 ([2]; cell binding assay, cell line not given, value given instead of cluster, read-out: CBA IC50 value)
CCCC[C@H]1C(=O)N(C)CC(=O)N[C@@H](CC(=O)O)C(=O)N[C@@H](C(C)C)C(=O)N(C)[C@@H](Cc2ccccc2)C(=O)N[C@@H](Cc2ccc(O)cc2)C(=O)N(C)CC(=O)N[C@@H](Cc2c[nH]c3ccccc23)C(=O)N[C@@H](Cc2ccc(O)cc2)C(=O)N[C@@H](CC(C)C)C(=O)N[C@H](C(=O)NCC(N)=O)CSCC(=O)N[C@@H](Cc2cnc[nH]2)C(=O)N(C)[C@@H](Cc2ccccc2)C(=O)N1C [Example 3091] (HELM PEPTIDE1{[O=C(C[*:3])[*:2]].H.[meF].[CCCC[C@@H](C(=O)[*:2])N(C)[*:1]].[Sar].D.V.[meF].Y.[Sar].W.Y.L.C.G.[am]}$PEPTIDE1,PEPTIDE1,1:R3-14:R3$$$V2.0)	> 30.5 nM	> 74.3 nM	–	–
CCCC[C@H]1C(=O)N(C)[C@@H](CCCC)C(=O)N[C@@H](CCCNC(=N)N)C(=O)N[C@H](C(=O)NCC(N)=O)CSCC(=O)N[C@@H](Cc2ccc(C(=O)O)cc2)C(=O)N(C)[C@@H](C)C(=O)N[C@@H](CC(N)=O)C(=O)N2CCC[C@H]2C(=O)N[C@@H](Cc2cnc[nH]2)C(=O)N[C@@H](CC(C)C)C(=O)N(C)CC(=O)N[C@@H](Cc2c[nH]c3ccccc23)C(=O)N[C@@H](CO)C(=O)N[C@@H](Cc2c[nH]c3ccccc23)C(=O)N1C [Example 1095] ({CH2CO}-[Phe(4-COOH)][NMeA]NPHL[Sar]WSW[NMeNle][NMeNle]RCG-NH2; thioether N-14)	> 30.5 nM	> 74.3 nM	–	–
CCCC[C@H]1C(=O)N(C)[C@@H](CCCC)C(=O)NC(CCCNC(=N)N)C(=O)N[C@H](C(=O)NCC(N)=O)CSCC(=O)N[C@@H](Cc2ccc(O)cc2)C(=O)N(C)[C@@H](C)C(=O)N[C@@H](CC(N)=O)C(=O)N2CCC[C@H]2C(=O)N[C@@H](CCN)C(=O)N[C@@H](CC(C)C)C(=O)N2C[C@H](O)C[C@H]2C(=O)N[C@@H](Cc2c[nH]c3ccccc23)C(=O)N[C@@H](CO)C(=O)N[C@@H](Cc2c(-c3ccc(OCC)cc3)[nH]c3ccccc23)C(=O)N1C (some centres unmarked) [Example 7010] ({CH2CO}-Y[NMeA]NP[Dab]L[Hyp]WS[X2][NMeNle][NMeNle][ξR]CG-NH2; thioether N-14)	0.385 to 6.74 nM	–	4.78 to 72.9 nM	–
CCCC[C@H]1C(=O)N(C)CC(=O)N[C@@H](CC(=O)O)C(=O)N[C@@H](C(C)C)C(=O)N(C)[C@@H](Cc2ccccc2)C(=O)N[C@@H](Cc2ccc(O)cc2)C(=O)N(C)CC(=O)N[C@@H](Cc2c[nH]c3ccccc23)C(=O)N[C@@H](Cc2ccc(O)cc2)C(=O)N[C@@H](CC(C)C)C(=O)N[C@H](C(=O)NCC(N)=O)CSCC(=O)N[C@@H](Cc2ccc(C(F)(F)F)cc2)C(=O)N(C)[C@@H](Cc2ccccc2)C(=O)N1C [Example 3093] ({CH2CO}-[Phe(4-CF3)][NMeF][NMeNle][Sar]DV[NMeF]Y[Sar]WYLCG-NH2; thioether N-13)	> 30.5 nM	4.78 to 72.9 nM	–	–
CCCC[C@H]1C(=O)N(C)[C@@H](CCCC)C(=O)N[C@@H](CCN)C(=O)N[C@H](C(=O)NCC(N)=O)CSCC(=O)N[C@@H](Cc2ccc(O)cc2)C(=O)N(C)[C@@H](C)C(=O)N[C@@H](CC(N)=O)C(=O)N2CCC[C@H]2C(=O)N[C@@H](CN)C(=O)N[C@@H](CCC(N)=O)C(=O)N2C[C@H](O)C[C@H]2C(=O)N[C@@H](Cc2c[nH]c3ccccc23)C(=O)N[C@@H](CCN)C(=O)N[C@@H](Cc2c[nH]c3ccccc23)C(=O)N1C [Example 5044] ({CH2CO}-Y[NMeA]NP[Dap]Q[Hyp]W[Dab]W[NMeNle][NMeNle][Dab]CG-NH2; thioether N-14)	0.385 to 6.74 nM	–	0.158 to 4.71 nM	–
CCCC[C@H]1C(=O)N(C)CC(=O)N[C@@H](CC(=O)O)C(=O)N[C@@H](C(C)C)C(=O)N(C)[C@@H](Cc2ccccc2)C(=O)N[C@@H](Cc2ccc(O)cc2)C(=O)N(C)CC(=O)N[C@@H](Cc2c[nH]c3ccccc23)C(=O)N[C@@H](Cc2ccc(O)cc2)C(=O)N[C@@H](CC(C)C)C(=O)N[C@H](C(=O)NCC(N)=O)CSCC(=O)N[C@@H](Cc2ccccc2)C(=O)N1C [Example 3053] (HELM PEPTIDE1{[O=C(C[*:3])[*:2]].F.[CCCC[C@@H](C(=O)[*:2])N(C)[*:1]].[Sar].D.V.[meF].Y.[Sar].W.Y.L.C.G.[am]}$PEPTIDE1,PEPTIDE1,1:R3-13:R3$$$V2.0)	> 30.5 nM	> 74.3 nM	–	–
CCCC[C@H]1C(=O)N(C)[C@@H](CCCC)C(=O)N[C@@H](CC2CCCCC2)C(=O)N[C@H](C(=O)NCC(N)=O)CSCC(=O)N[C@@H](Cc2ccc(O)cc2)C(=O)N(C)[C@@H](C)C(=O)N[C@@H](CC(N)=O)C(=O)N2CCC[C@H]2C(=O)N[C@@H](Cc2c[nH]cn2)C(=O)N[C@@H](CCC(N)=O)C(=O)N2C[C@H](O)C[C@H]2C(=O)N[C@@H](Cc2c[nH]c3ccccc23)C(=O)N[C@@H](CO)C(=O)N[C@@H](Cc2c[nH]c3ccccc23)C(=O)N1C [Example 5077] ({CH2CO}-Y[NMeA]NPHQ[Hyp]WSW[NMeNle][NMeNle][Cha]CG-NH2; thioether N-14)	6.76 to 30.3 nM	–	0.158 to 4.71 nM	–
CCCC[C@H]1C(=O)N(C)[C@@H](CCCC)C(=O)N[C@@H](CCCNC(=N)N)C(=O)N[C@H](C(=O)NCC(N)=O)CSCC(=O)N[C@@H](Cc2ccccc2)C(=O)N(C)[C@@H](C)C(=O)N[C@@H](CC(N)=O)C(=O)N2CCC[C@H]2C(=O)N[C@@H](Cc2cnc[nH]2)C(=O)N[C@@H](CCCNC(=N)N)C(=O)N(C)CC(=O)N[C@@H](Cc2c[nH]c3ccccc23)C(=O)N[C@@H](CO)C(=O)N[C@@H](Cc2c[nH]c3ccccc23)C(=O)N1C [Example 6003] ({CH2CO}-F[NMeA]NPHR[Sar]WSW[NMeNle][NMeNle]RCG-NH2; thioether N-14)	6.76 to 30.3 nM	–	–	72.9 nM
CCCC[C@H]1C(=O)N(C)CC(=O)N[C@@H](CC(=O)O)C(=O)N[C@@H](C(C)C)C(=O)N(C)[C@@H](Cc2ccccc2)C(=O)N[C@@H](Cc2ccc(CN)cc2)C(=O)N(C)CC(=O)N[C@@H](Cc2csc3ccccc23)C(=O)N[C@@H](Cc2ccc(O)cc2)C(=O)N[C@@H](CC(C)C)C(=O)N[C@H](C(=O)NCC(N)=O)CSCC(=O)N[C@@H](Cc2ccc(F)cc2)C(=O)N(C)[C@@H](Cc2ccccc2)C(=O)N1C [Example 3120] ({CH2CO}-[Phe(4-F)][NMeF][NMeNle][Sar]DV[NMeF][Phe(4-CH2NH2)][Sar][Bta]YLCG-NH2; thioether N-13)	6.76 to 30.3 nM	0.158 to 4.71 nM	–	–
CCCC[C@H]1C(=O)N2CCC[C@@H]2C(=O)N[C@@H](CCCCN)C(=O)N[C@@H](C(C)C)C(=O)N(C)[C@@H](Cc2ccccc2)C(=O)N[C@@H](CCC(=O)O)C(=O)N2CCC[C@@H]2C(=O)N[C@@H](Cc2c[nH]c3ccccc23)C(=O)N[C@@H](Cc2ccc(O)cc2)C(=O)N[C@@H](CC(C)C)C(=O)N[C@H](C(=O)NCC(N)=O)CSCC(=O)N[C@@H](Cc2ccccc2)C(=O)N(C)[C@@H](Cc2ccccc2)C(=O)N1C [Example 3190] (HELM PEPTIDE1{[O=C(C[*:3])[*:2]].F.[meF].[CCCC[C@@H](C(=O)[*:2])N(C)[*:1]].[dP].K.V.[meF].E.[dP].W.Y.L.C.G.[am]}$PEPTIDE1,PEPTIDE1,1:R3-14:R3$$$V2.0)	0.385 to 6.74 nM	0.158 to 4.71 nM	–	–
CCCC[C@H]1C(=O)N2CCC[C@@H]2C(=O)N[C@@H](CC(=O)O)C(=O)N[C@@H](C(C)C)C(=O)N(C)[C@@H](Cc2ccccc2)C(=O)N[C@@H](Cc2ccc(O)cc2)C(=O)N(C)CC(=O)N[C@@H](Cc2c[nH]c3ccccc23)C(=O)N[C@@H](Cc2ccc(O)cc2)C(=O)N[C@@H](CC(C)C)C(=O)N[C@H](C(=O)NCC(N)=O)CSCC(=O)N[C@@H](Cc2ccccc2)C(=O)N(C)[C@@H](Cc2ccccc2)C(=O)N1C [Example 3560] (HELM PEPTIDE1{[O=C(C[*:3])[*:2]].F.[meF].[CCCC[C@@H](C(=O)[*:2])N(C)[*:1]].[dP].D.V.[meF].Y.[Sar].W.Y.L.C.G.[am]}$PEPTIDE1,PEPTIDE1,1:R3-14:R3$$$V2.0)	6.76 to 30.3 nM	–	0.158 to 4.71 nM	–
CCCC[C@H]1C(=O)N(C)CC(=O)N[C@@H](CC(=O)O)C(=O)N[C@@H](C(C)C)C(=O)N(C)[C@@H](Cc2ccccc2)C(=O)N[C@@H](CCCNC(=N)N)C(=O)N(C)CC(=O)N[C@@H](Cc2c[nH]c3ccccc23)C(=O)N[C@@H](Cc2ccc(O)cc2)C(=O)N[C@@H](CC(C)C)C(=O)N[C@H](C(=O)NCC(N)=O)CSCC(=O)N[C@@H](Cc2ccccc2)C(=O)N(C)[C@@H](Cc2ccccc2)C(=O)N1C [Example 3506] (HELM PEPTIDE1{[O=C(C[*:3])[*:2]].F.[meF].[CCCC[C@@H](C(=O)[*:2])N(C)[*:1]].[Sar].D.V.[meF].R.[Sar].W.Y.L.C.G.[am]}$PEPTIDE1,PEPTIDE1,1:R3-14:R3$$$V2.0)	0.385 to 6.74 nM	–	4.78 to 72.9 nM	–
CCCC[C@H]1C(=O)N(C)[C@@H](CCCC)C(=O)N[C@@H](CCCN)C(=O)N[C@H](C(=O)NCC(N)=O)CSCC(=O)N[C@@H](Cc2ccc(O)cc2)C(=O)N2CCC[C@H]2C(=O)N[C@@H](CC(=O)O)C(=O)N2CCC[C@H]2C(=O)N[C@@H](CN)C(=O)N[C@@H](CC(C)C)C(=O)N2C[C@@H](O)C[C@H]2C(=O)N[C@@H](Cc2c[nH]c3ccccc23)C(=O)N[C@@H](CO)C(=O)N[C@@H](Cc2c[nH]c3ccccc23)C(=O)N1C [Example 1149] ({CH2CO}-YPDP[Dap]L[cisHyp]WSW[NMeNle][NMeNle][Orn]CG-NH2; thioether N-14)	6.76 to 30.3 nM	4.78 to 72.9 nM	–	–
